≈ marks a conversion by molar mass, not a printed value.
How the values were obtained:
Klebsiella pneumoniae = assay: Antibacterial activity against Klebsiella pneumoniae after 24 hrs by broth dilution method; type: functional
Staphylococcus aureus = assay: Antibacterial activity against Staphylococcus aureus ATCC 29213 after 24 hrs by broth dilution method; type: functional; settings: ATCC 29213, 24 h
[1] = tested on: Staphylococcus epidermidis; assay: Antibacterial activity against Staphylococcus epidermidis after 24 hrs by broth dilution method; type: functional
Pseudomonas aeruginosa = assay: Antibacterial activity against Pseudomonas aeruginosa ATCC 27853 after 24 hrs by broth dilution method; type: functional; settings: ATCC 27853, 24 h
Erythrocyte = assay: Hemolytic activity in human erythrocytes at 1 mM; type: ADME, cell-based; settings: 1000 µM

SMILES | MIC (Klebsiella pneumoniae) | MIC (Staphylococcus aureus) | MIC [1] | MIC (Pseudomonas aeruginosa) | Activity (Erythrocyte)
Cc1ccc(C(C)C)c(OP(=S)(S)Oc2cc(C)ccc2C(C)C)c1.NC(=O)c1cccnc1 | 1500 µM | 380 µM | 380 µM | 380 µM | –
CC1(C)[C@H]2CC[C@](C)(C2)[C@H]1OP(=S)(S)O[C@H]1C(C)(C)[C@H]2CC[C@]1(C)C2.Cc1ncc(CO)c(CO)c1O | 320 µM | 20 µM | 20 µM | 320 µM | –
CC1(C)[C@H]2CC[C@]1(C)[C@H](OP(=S)(S)O[C@@H]1C[C@@H]3CC[C@@]1(C)C3(C)C)C2.CN1CCC[C@H]1c1cccnc1 | 320 µM | 20 µM | 20 µM | 320 µM | –
Cc1ccc(C(C)C)c(OP(=S)(S)Oc2cc(C)ccc2C(C)C)c1 | 3800 µM (≈ 1500 µg/mL) | 3800 µM (≈ 1500 µg/mL) | 3800 µM (≈ 1500 µg/mL) | 3800 µM (≈ 1500 µg/mL) | –
CCCCOP(=S)(S)OCCCC.CN1CCC[C@H]1c1cccnc1 | 3630 µM | 1810 µM | 1810 µM | 3630 µM | –
CC(C)[C@@H]1CC[C@@H](C)C[C@H]1OP(=S)(S)O[C@@H]1C[C@H](C)CC[C@H]1C(C)C | 1540 µM (≈ 626 µg/mL) | 190 µM (≈ 77.3 µg/mL) | 380 µM (≈ 155 µg/mL) | 380 µM (≈ 155 µg/mL) | Toxic
CN1CCC[C@H]1c1cccnc1.Cc1ccc(C(C)C)c(OP(=S)(S)Oc2cc(C)ccc2C(C)C)c1 | 2530 µM | 320 µM | 320 µM | 320 µM | –
Cc1ccc(C(C)C)c(OP(=S)(S)Oc2cc(C)ccc2C(C)C)c1.Cc1ncc(CO)c(CO)c1O | 530 µM | 530 µM | 530 µM | 530 µM | –
CC(C)[C@H]1CC[C@H](C)C[C@@H]1OP(=S)(S)O[C@H]1C[C@@H](C)CC[C@@H]1C(C)C.CN1CCC[C@H]1c1cccnc1 | 320 µM | 20 µM | 20 µM | 320 µM | –
C[C@@H]1[C@@H](OP(=S)(S)O[C@H]2C[C@H]3C[C@@H]([C@@H]2C)C3(C)C)C[C@H]2C[C@@H]1C2(C)C.NC(=O)c1cccnc1 | 4780 µM | 300 µM | 300 µM | 4780 µM | –
CN[C@H](CC(C)C)C(=O)N[C@H]1C(=O)N[C@@H](CC(N)=O)C(=O)N[C@H]2C(=O)N[C@H]3C(=O)N[C@H](C(=O)N[C@H](C(=O)O)c4cc(O)cc(O)c4-c4cc3ccc4O)[C@H](O)c3ccc(c(Cl)c3)Oc3cc2cc(c3O[C@@H]2O[C@H](CO)[C@@H](O)[C@H](O)[C@H]2O[C@H]2C[C@](C)(N)[C@H](O)[C@H](C)O2)Oc2ccc(cc2Cl)[C@H]1O [VANCOMYCIN] | > 5000 µM | 1.4 µM (≈ 2.03 µg/mL) | 0.7 µM (≈ 1.01 µg/mL) | > 5000 µM | –

Source: ChEMBL document CHEMBL4371024, “Synthesis and characterization of pyridoxine, nicotine and nicotinamide salts of dithiophosphoric acids as antibacterial agents against resistant wound infection” (Bioorg Med Chem, 2019)
